Where two headings read alike, the source gives them in different places.
Key:
[1] = tested on: bacteria; assay: Bactericidal preservatives added to bacteria, cell counts by flow cytometry or cell plating; type: cell-based; settings: cell counts over 3 days, FIG. 60
[2] = tested on: bacterial cells; settings: preservative with TENT, PCR or plating, FIG. 59A/59B
[3] = high concentration culture, 4.5×10^6 cells
[4] = low concentration culture, 8.6×10^4 cells

Structure (SMILES) | viability of bacteria over time [1] | viability of bacteria [2, 3] | viability of bacteria [2, 4]
C[CH2][Hg][S]c1ccccc1C(=O)[O-].[Na+] [thimerosal] | reduced the viability of bacteria | reduce the viability of bacteria | reduce the viability of bacteria
C/C=C/C=C/C(=O)O [sorbic acid] | – | reduce the viability of bacteria | reduce the viability of bacteria
O=C(NCO)N(CO)C1(CO)C(=O)NC(=O)N1CO (centres unmarked) [diazolidinyl urea] | reduced the viability of bacteria | – | –
OCCOc1ccccc1 [2-phenoxyethanol] | – | reduce the viability of bacteria | reduce the viability of bacteria

— patent US10588608B2, “Sampling systems and related materials and methods” (Progenity Inc., priority 2016, dated 2020)
